Here are results for eleven compounds from patent publication US20210395313A1, “PEPTIDE PAC1 ANTAGONISTS” (AMGEN INC., priority 2017, published 2021).

Where a SMILES comes first, the peptide text is derived from it. Bridges are numbered along the chain shown (N, C = ends). Where no end group is shown, it is not given here. Some results are limits rather than exact numbers.

One assay addresses T1, human PAC1 receptor (Homo sapiens, UniProt P41586).
T1 construct: SHSY-5Y (human neuroblastoma cell line) and RG-2 (rat glioma cell line) cells endogenously express human and rat PAC1 receptors, respectively; endogenous in cells; host or cells: SHSY-5Y human neuroblastoma cells
T1 sequence (P41586 21-468): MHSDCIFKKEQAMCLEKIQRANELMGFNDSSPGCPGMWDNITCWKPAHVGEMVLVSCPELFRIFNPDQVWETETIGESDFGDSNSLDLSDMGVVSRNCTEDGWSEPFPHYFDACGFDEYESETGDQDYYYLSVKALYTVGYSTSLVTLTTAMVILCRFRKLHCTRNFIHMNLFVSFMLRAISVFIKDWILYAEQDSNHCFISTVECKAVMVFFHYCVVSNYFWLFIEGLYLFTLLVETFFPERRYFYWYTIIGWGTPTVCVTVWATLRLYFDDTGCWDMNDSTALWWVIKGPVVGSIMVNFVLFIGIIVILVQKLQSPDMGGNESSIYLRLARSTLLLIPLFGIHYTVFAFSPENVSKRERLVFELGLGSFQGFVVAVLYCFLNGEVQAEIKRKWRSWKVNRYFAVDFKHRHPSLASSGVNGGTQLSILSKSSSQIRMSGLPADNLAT
Kind of assay: LANCE Ultra cAMP accumulation antagonist assay in SHSY-5Y cells.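 Further: inhibition of cAMP accumulation evoked by PAC1 agonist at its EC80 in SHSY-5Y cells endogenously expressing receptor, 30 min preincubation then 15 min agonist, TR-FRET readout.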 The assay is classed as cell-based. For orientation: TR-FRET usually uses a lanthanide donor and a delayed reading to cut background.

A further assay deals with T2, rat PAC1 receptor (Rattus norvegicus, UniProt P32215).
T2 construct: SHSY-5Y (human neuroblastoma cell line) and RG-2 (rat glioma cell line) cells endogenously express human and rat PAC1 receptors, respectively; endogenous in cells; host or cells: RG-2 rat glioma cells
T2 sequence (P32215 20-523): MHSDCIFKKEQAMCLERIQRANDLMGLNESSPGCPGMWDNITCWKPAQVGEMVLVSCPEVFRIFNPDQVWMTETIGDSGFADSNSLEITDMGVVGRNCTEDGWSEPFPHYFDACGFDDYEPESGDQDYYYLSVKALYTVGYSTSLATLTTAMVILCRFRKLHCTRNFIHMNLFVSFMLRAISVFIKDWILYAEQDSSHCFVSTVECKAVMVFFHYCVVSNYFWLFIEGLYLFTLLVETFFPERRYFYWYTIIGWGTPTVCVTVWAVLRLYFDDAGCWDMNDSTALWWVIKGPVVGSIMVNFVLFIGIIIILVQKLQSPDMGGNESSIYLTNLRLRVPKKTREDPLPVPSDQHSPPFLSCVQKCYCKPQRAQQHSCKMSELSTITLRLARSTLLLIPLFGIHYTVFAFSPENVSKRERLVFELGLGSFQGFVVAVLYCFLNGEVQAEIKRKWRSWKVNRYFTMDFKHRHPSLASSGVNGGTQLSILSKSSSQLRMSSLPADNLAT
In words: LANCE Ultra cAMP accumulation antagonist assay in RG-2 cells.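 Further: RG-2 rat glioma cells endogenously expressing PAC1, test peptide preincubated 30 min, then PAC1 agonist added at its EC80 for 15 min, cAMP accumulation read by LANCE Ultra.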 The assay is classed as cell-based.

One may read the IC50 as the concentration at which inhibition is half-maximal. High values mean weaker potency in that assay, low ones greater potency in that assay. With “CDATCQFRKAIDDCAWFAMHSNVPGSVFKACMKQKKKEFKAG-NH2 (disulfide 1-5, 14-31) [compound 90]”, the IC50 on human PAC1 receptor and on rat PAC1 receptor was 0.01 to 1 nM throughout.
For the compound “CDATCQFRKAIDDCARQAHHSNVPGSVFKACMKQKKKEFKAG-NH2 (disulfide 1-5, 14-31) [compound 17]”, the IC50 was 0.01 to 1 nM at human PAC1 receptor and below 0.01 nM on rat PAC1 receptor.
For `CC[C@H](C)[C@H](NC(=O)[C@H](C)NC(=O)[C@H](CCCCN)NC(=O)[C@H](CCCNC(=N)N)NC(=O)[C@H](Cc1ccccc1)NC(=O)[C@H](CCC(N)=O)NC(=O)[C@@H]1CSSC[C@H](N)C(=O)N[C@@H](CC(=O)O)C(=O)N[C@@H](C)C(=O)N[C@@H]([C@@H](C)O)C(=O)N1)C(=O)N[C@@H](CC(=O)O)C(=O)N[C@@H](CC(=O)O)C(=O)N[C@H]1CSSC[C@@H](C(=O)N[C@@H](CCSC)C(=O)N[C@@H](CCCCN)C(=O)N[C@@H](CCC(N)=O)C(=O)N[C@@H](CCCCN)C(=O)N[C@@H](CCCCN)C(=O)N[C@@H](CCCCN)C(=O)N[C@@H](CCC(=O)O)C(=O)N[C@@H](Cc2c[nH]c3ccccc23)C(=O)N[C@@H](CCCCN)C(=O)N[C@@H](C)C(=O)NCC(=O)N[C@@H](Cc2c[nH]cn2)C(=O)O)NC(=O)[C@H](C)NC(=O)[C@H](CCCCN)NC(=O)[C@H](Cc2ccccc2)NC(=O)[C@H](C(C)C)NC(=O)[C@H](CO)NC(=O)[C@H](CO)NC(=O)[C@H](Cc2c[nH]cn2)NC(=O)[C@H](Cc2c[nH]cn2)NC(=O)[C@H](C)NC(=O)[C@H](CCC(N)=O)NC(=O)[C@H](CCCNC(=N)N)NC(=O)[C@H](C(C)C)NC1=O` [compound 75] (H-CDATCQFRKAIDDCVRQAHHSSVFKACMKQKKKEWKAGH-OH; disulfide 1-5, 14-27) the same measures were 0.01 to 1 nM and below 0.01 nM.
For `CC[C@H](C)[C@H](NC(=O)[C@H](C)NC(=O)[C@H](CCCCN)NC(=O)[C@H](CCCNC(=N)N)NC(=O)[C@H](Cc1ccccc1)NC(=O)[C@H](CCC(N)=O)NC(=O)[C@@H]1CSSC[C@H](N)C(=O)N[C@@H](CC(=O)O)C(=O)N[C@@H](C)C(=O)N[C@@H]([C@@H](C)O)C(=O)N1)C(=O)N[C@@H](CC(=O)O)C(=O)N[C@@H](CC(=O)O)C(=O)N[C@H]1CSSC[C@@H](C(=O)N[C@@H](CCSC)C(=O)N[C@@H](CCCCN)C(=O)N[C@@H](CCC(N)=O)C(=O)N[C@@H](CCCCN)C(=O)N[C@@H](CCCCN)C(=O)N[C@@H](CCCCN)C(=O)N[C@@H](CCC(=O)O)C(=O)N[C@@H](Cc2c[nH]c3ccccc23)C(=O)N[C@@H](CCCCN)C(=O)N[C@@H](C)C(=O)NCC(=O)N[C@@H](Cc2c[nH]cn2)C(=O)O)NC(=O)[C@H](C)NC(=O)[C@H](CCCCN)NC(=O)[C@H](Cc2ccccc2)NC(=O)[C@H](C(C)C)NC(=O)[C@H](CO)NC(=O)[C@H](CO)NC(=O)[C@H](Cc2c[nH]cn2)NC(=O)[C@H](Cc2c[nH]cn2)NC(=O)[C@H](C)NC(=O)[C@H](CCC(N)=O)NC(=O)[C@H](CCCNC(=N)N)NC(=O)[C@H](C)NC1=O` [compound 28] (H-CDATCQFRKAIDDCARQAHHSSVFKACMKQKKKEWKAGH-OH; disulfide 1-5, 14-27) the same measures were 0.01 to 1 nM and 0.01 to 1 nM.
Regarding “CDATCQFRKAIDDCQKQAHHSNVPGSVFKACMKQKKKEFKAGQ (disulfide 1-5, 14-31) [compound 174]”, the IC50 was 1 to 100 nM against human PAC1 receptor and 0.01 to 1 nM on rat PAC1 receptor.
As for `CC[C@H](C)[C@H](NC(=O)[C@H](C)NC(=O)[C@H](CCCCN)NC(=O)[C@H](CCCNC(=N)N)NC(=O)[C@H](Cc1ccccc1)NC(=O)[C@H](CCC(N)=O)NC(=O)[C@@H]1CSSC[C@H](N)C(=O)N[C@@H](CC(=O)O)C(=O)N[C@@H](C)C(=O)N[C@@H]([C@@H](C)O)C(=O)N1)C(=O)N[C@@H](CC(=O)O)C(=O)N[C@@H](CC(=O)O)C(=O)N[C@H]1CSSC[C@@H](C(=O)N[C@@H](CCSC)C(=O)N[C@@H](CCCCN)C(=O)N[C@@H](CCC(N)=O)C(=O)N[C@@H](CCCCN)C(=O)N[C@@H](CCCCN)C(=O)N[C@@H](CCCCN)C(=O)N[C@@H](CCC(=O)O)C(=O)N[C@@H](Cc2ccccc2)C(=O)N[C@@H](CCCCN)C(N)=O)NC(=O)[C@H](CCC(=O)O)NC(=O)[C@H](CCCCN)NC(=O)[C@H](Cc2ccccc2)NC(=O)[C@H](C(C)C)NC(=O)[C@H](CO)NC(=O)[C@H](CO)NC(=O)[C@H](Cc2c[nH]cn2)NC(=O)[C@H](Cc2c[nH]cn2)NC(=O)[C@H](C)NC(=O)[C@H](CCC(N)=O)NC(=O)[C@H](CCCCN)NC(=O)[C@H](CC(=O)O)NC1=O` [compound 223], the IC50 at human PAC1 receptor is below 0.01 nM; against rat PAC1 receptor, 1 to 100 nM.
For “SDATSQYRKGLVACLYKKVAMQKRYSVFKACMKQKKKEWKAG-NH2 (disulfide 14-31) [compound 426]” the same measures were 1 to 100 nM and 0.01 to 1 nM.
For `CC[C@H](C)[C@H](NC(=O)[C@H](C)NC(=O)[C@H](CCCCN)NC(=O)[C@H](CCCNC(=N)N)NC(=O)[C@H](Cc1ccccc1)NC(=O)[C@H](CCC(N)=O)NC(=O)[C@@H]1CSSC[C@H](N)C(=O)N[C@@H](CC(=O)O)C(=O)N[C@@H](C)C(=O)N[C@@H]([C@@H](C)O)C(=O)N1)C(=O)N[C@@H](CC(=O)O)C(=O)N[C@@H](CC(=O)O)C(=O)N[C@H]1CSSC[C@@H](C(=O)N[C@@H](CCSC)C(=O)N[C@@H](CCCCN)C(=O)N[C@@H](CCC(N)=O)C(=O)N[C@@H](CCCCN)C(=O)N[C@@H](CCCCN)C(=O)N[C@@H](CCCCN)C(=O)N[C@@H](CCC(=O)O)C(=O)N[C@@H](Cc2ccccc2)C(=O)N[C@@H](CCCCN)C(N)=O)NC(=O)[C@H](CCC(=O)O)NC(=O)[C@H](CCCCN)NC(=O)[C@H](Cc2ccccc2)NC(=O)[C@H](C(C)C)NC(=O)[C@H](CO)NC(=O)[C@H](CC(N)=O)NC(=O)CNC(=O)[C@H](C(C)C)NC(=O)[C@H](CC(N)=O)NC(=O)[C@H](CO)NC(=O)[C@H](Cc2c[nH]cn2)NC(=O)[C@H](Cc2c[nH]cn2)NC(=O)[C@H](C)NC(=O)[C@H](CCC(N)=O)NC(=O)[C@H](CCCCN)NC(=O)[C@H](CCC(N)=O)NC1=O` [compound 275] (H-CDATCQFRKAIDDCQKQAHHSNVGNSVFKECMKQKKKEFK-NH2; disulfide 1-5, 14-31) the same measures were 1 to 100 nM and 1 to 100 nM.
Turning to “CDATCQFRKAIDDCFWLASHSNVPGSVWKACMKQKKKEFKAG-NH2 (disulfide 1-5, 14-31) [compound 119]”, the IC50 at human PAC1 receptor and against rat PAC1 receptor was 0.01 to 1 nM throughout.
With “CDATCQFRKAIDDCQKQAHHSNVPGSVFKACMKQKKKEFKAGHHHHHH (disulfide 1-5, 14-31) [compound 160]”, the IC50 on human PAC1 receptor is 1 to 100 nM; at rat PAC1 receptor, 0.01 to 1 nM.
For `CC[C@H](C)[C@H](NC(=O)[C@H](C)NC(=O)[C@H](CCCCN)NC(=O)[C@H](CCCNC(=N)N)NC(=O)[C@H](Cc1ccccc1)NC(=O)[C@H](CCC(N)=O)NC(=O)[C@@H]1CSSC[C@H](N)C(=O)N[C@@H](CC(=O)O)C(=O)N[C@@H](C)C(=O)N[C@@H]([C@@H](C)O)C(=O)N1)C(=O)N[C@@H](CC(=O)O)C(=O)N[C@@H](CC(=O)O)C(=O)N[C@H]1CSSC[C@@H](C(=O)N[C@@H](CCSC)C(=O)N[C@@H](CCCCN)C(=O)N[C@@H](CCC(N)=O)C(=O)N[C@@H](CCCCN)C(=O)N[C@@H](CCCCN)C(=O)N[C@@H](CCCCN)C(=O)N[C@@H](CCC(=O)O)C(=O)N[C@@H](Cc2c[nH]c3ccccc23)C(=O)N[C@@H](CCCCN)C(=O)N[C@@H](C)C(=O)NCC(N)=O)NC(=O)[C@H](C)NC(=O)[C@H](CCCCN)NC(=O)[C@H](Cc2ccccc2)NC(=O)[C@H](C(C)C)NC(=O)[C@H](CO)NC(=O)[C@H](CO)NC(=O)[C@H](Cc2c[nH]cn2)NC(=O)[C@H](Cc2c[nH]c3ccccc23)NC(=O)[C@H](CO)NC(=O)[C@H](CCCNC(=N)N)NC(=O)[C@H](Cc2ccc(O)cc2)NC(=O)[C@H](Cc2ccc(O)cc2)NC1=O` [compound 61] (H-CDATCQFRKAIDDCYYRSWHSSVFKACMKQKKKEWKAG-NH2; disulfide 1-5, 14-27) the same measures were 0.01 to 1 nM and 0.01 to 1 nM.
